# From PMC6326523, “A high-throughput screen to identify novel small molecule inhibitors of the Werner Syndrome Helicase-Nuclease (WRN)” (PLoS ONE, 2019)
# Columns and labels:
# [1] = molecular target: T1, full-length FANCJ helicase (Homo sapiens, UniProt Q9BX63); experiment: Radiometric helicase assay, full-length FANCJ; type: biochemical; conditions: for IC50: full-length FANCJ 5 nM, FORKR 0.5 nM
# T1 construct: Full length recombinant WRN [18], BLM [19], and FANCJ [20] proteins were purified from insect cells; made in house; host or cells: insect cells
# T1 sequence (Q9BX63 1-1249): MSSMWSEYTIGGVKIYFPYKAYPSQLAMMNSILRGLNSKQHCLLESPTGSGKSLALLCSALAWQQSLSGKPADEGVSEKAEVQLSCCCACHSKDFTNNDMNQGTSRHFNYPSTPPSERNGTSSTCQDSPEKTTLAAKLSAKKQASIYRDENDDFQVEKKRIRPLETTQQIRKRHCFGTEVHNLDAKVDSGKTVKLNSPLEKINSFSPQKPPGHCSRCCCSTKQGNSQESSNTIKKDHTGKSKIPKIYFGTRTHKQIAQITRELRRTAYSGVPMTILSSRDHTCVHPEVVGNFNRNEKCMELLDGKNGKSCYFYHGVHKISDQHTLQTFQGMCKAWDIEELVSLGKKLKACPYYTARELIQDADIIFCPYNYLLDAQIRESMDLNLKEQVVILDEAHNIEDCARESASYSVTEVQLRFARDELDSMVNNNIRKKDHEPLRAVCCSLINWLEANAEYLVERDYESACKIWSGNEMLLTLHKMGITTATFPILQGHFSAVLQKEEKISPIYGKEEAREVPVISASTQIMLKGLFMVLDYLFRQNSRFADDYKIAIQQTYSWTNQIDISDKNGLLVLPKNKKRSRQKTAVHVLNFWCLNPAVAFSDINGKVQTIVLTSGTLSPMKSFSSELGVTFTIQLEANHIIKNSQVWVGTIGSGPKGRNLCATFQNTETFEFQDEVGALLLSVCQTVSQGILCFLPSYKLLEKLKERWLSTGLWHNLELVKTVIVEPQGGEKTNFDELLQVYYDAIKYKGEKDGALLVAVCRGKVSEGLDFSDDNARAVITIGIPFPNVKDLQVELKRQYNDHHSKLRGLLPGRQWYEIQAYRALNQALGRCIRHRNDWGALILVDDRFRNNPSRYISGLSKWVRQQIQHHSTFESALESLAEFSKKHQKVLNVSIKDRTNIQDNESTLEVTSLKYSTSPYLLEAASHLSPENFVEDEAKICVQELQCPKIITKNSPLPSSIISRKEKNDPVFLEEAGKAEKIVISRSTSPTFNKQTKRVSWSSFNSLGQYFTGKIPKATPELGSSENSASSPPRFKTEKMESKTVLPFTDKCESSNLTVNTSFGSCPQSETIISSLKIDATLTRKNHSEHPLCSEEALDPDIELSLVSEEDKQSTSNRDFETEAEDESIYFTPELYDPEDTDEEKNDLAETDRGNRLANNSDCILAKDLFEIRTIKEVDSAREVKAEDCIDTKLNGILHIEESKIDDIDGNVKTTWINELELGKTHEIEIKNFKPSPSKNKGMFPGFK
# Experimental: Fifteen μL of reaction buffer was added to a microcentrifuge tube followed by the addition of 1 μL of selected compounds (0.5–100 μM final concentration) or DMSO. One μL of WRN (full length), RECQ1, FANCJ, BLM or control was added to each reaction and incubated at room temperature for 15 min. Three μL of substrate (0.5 nM FORKR and 2 mM ATP final concentrations) were added to all reactions which were incubated at 37°C for 15 min. Reactions were stopped with the addition of 20 μL of 2X STOP dye containing EDTA, glycerol, bromphenol blue and xylene cyanol. Samples were electrophoresed for 1.5 hr at 200 V on a 12% non-denaturing PAGE gel in 1X TBE Buffer.
# Three compounds identified from the cherry-picked set were tested for their effects on WRN exonuclease activity (20 nM) on the FORKR DNA substrate (1 nM) as well as DNA unwinding by full-length BLM (0.1 nM) and FANCJ (5 nM) helicases, which belong to the same Superfamily 2 as WRN [25], to assess their specificity for inhibition of WRN-catalyzed unwinding of the FORKR DNA substrate (0.5 nM). […] Nonetheless, these two compounds were also further tested in cell-based assays to assess their effects on proliferation.
# Supplementary file pone.0210525.s005.TIF: S5 Fig Specificity of select WRN inhibitors for inhibition of other human helicases. (A) Quantitation of full-length BLM helicase (0.1 nM) activity on the FORKR DNA substrate (0.5 nM) with increasing concentration of each compound (0–100 μM). (B) Quantitation of full-length FANCJ (5 nM) helicase activity on the FORKR DNA substrate (0.5 nM) with increasing concentration of each compound (0–100 μM). (TIF) Click here for additional data file.
# [2] = test system: Hematopoietic Protein Tyrosine Phosphatase (HePTP); design: method as in PMID 22070201; conditions: separate high-throughput screen; cited from earlier work
# polymerases = test system: polymerases; design: method as in PubChem; conditions: review of PubChem data from previously-conducted screens; ref PubChem; cited from earlier work
# BLM helicase fragment = test system: BLM helicase fragment; design: method as in PubChem; conditions: review of PubChem data from previously-conducted screens; ref PubChem; cited from earlier work
Compound,IC50 for WRN helicase inhibition fold less than that observed for FANCJ ([1]; WRN vs FANCJ) [fold],IC50 [1] [µM],Inhibition of HePTP [2],Activity against polymerases in high-throughput screens (polymerases),Activity against BLM helicase fragment in high-throughput screens (BLM helicase fragment)
Cc1ccc(-c2csc(NS(=O)(=O)c3cccc(F)c3)n2)o1 [MLS002251300-02],6,28.5 ± 2,–,–,–
COc1ccc2nc(O)c(-c3noc(-c4ccccc4)n3)cc2c1 [NCGC00063279-02],–,13.9 ± 2.6,inhibited,some activity,no activity
COc1ccc2nc(O)c(-c3noc(-c4ccc(F)cc4)n3)cc2c1 [NCGC00029283-02],–,3.4 ± 0.5,inhibited,some activity,no activity
